“And” between values parts separate entries of the source, which are not always exact repeats. Identical values can stand only once. The source made the active and inactive calls. How the calls were made is not given here.
System: rodent lifetime carcinogenesis bioassay, tumor incidence TD50
Assay: chronic cancer bioassays in animals – CPDB, compiled studies (AID 1745844)

## COC(=O)c1ccc(C(=O)OC)cc1
mouse, strain B6C3F1, females, in feed, site: any site (literature study), lesion: several types, types named in the paper, dosed 103 weeks, study length 105 weeks
  TD50: 4340 mg/kg/day (inactive)
mouse, strain B6C3F1, females, in feed, site: lung, lesion: alveolar/bronchiolar adenoma + alveolar/bronchiolar carcinoma, dosed 103 weeks, study length 105 weeks
  TD50: 44000 mg/kg/day
mouse, strain B6C3F1, males, in feed, site: lung, lesion: alveolar/bronchiolar adenoma + alveolar/bronchiolar carcinoma, dosed 103 weeks, study length 104 weeks
  TD50: 1160 mg/kg/day (inactive) and 1160 mg/kg/day
rat, strain Fischer 344, females, in feed, site: any site (literature study), lesion: several types, types named in the paper, dosed 103 weeks, study length 105 weeks
  TD50: 342 mg/kg/day (inactive)
rat, strain Fischer 344, males, in feed, site: any site (literature study), lesion: several types, types named in the paper, dosed 103 weeks, study length 105 weeks
  carcinogen call: negative (inactive)

## CN(C)N=Nc1ccccc1
rat, strain BD, both sexes, by gavage, site: any site (literature study), lesion: malignant tumor, dosed 104 weeks, study length 104 weeks
  TD50: 2.31 mg/kg/day
rat, strain BD, both sexes, by gavage, site: brain, lesion: several types, types named in the paper, dosed 104 weeks, study length 104 weeks
  TD50: 5.81 mg/kg/day

## O=C(Nc1ccc2c(c1)Cc1ccccc1-2)C(F)(F)F
rat, strain Buffalo, females, in feed, site: ear duct, lesion: squamous-cell carcinoma, dosed 53 weeks, study length 54 weeks
  TD50: 4.94 mg/kg/day
rat, strain Buffalo, females, in feed, site: liver, lesion: hepatoma, dosed 53 weeks, study length 54 weeks
  TD50: 1.9 mg/kg/day
rat, strain Buffalo, females, in feed, site: mammary gland, lesion: adenocarcinoma, dosed 53 weeks, study length 54 weeks
  TD50: 1.62 mg/kg/day

## O=NN1CC(=O)NC1=O
rat, strain MRC-Wistar, females, in drinking water, site: any site (literature study), lesion: several types, types named in the paper, dosed 52 weeks, study length 110 weeks
  TD50: 19.6 mg/kg/day
rat, strain MRC-Wistar, males, in drinking water, site: any site (literature study), lesion: several types, types named in the paper, dosed 52 weeks, study length 110 weeks
  TD50: 7.31 mg/kg/day
rat, strain MRC-Wistar, males, in drinking water, site: forestomach, lesion: squamous-cell papilloma, dosed 52 weeks, study length 110 weeks
  TD50: 27.8 mg/kg/day
rat, strain MRC-Wistar, males, in drinking water, site: pharynx, lesion: squamous-cell carcinoma, dosed 52 weeks, study length 110 weeks
  TD50: 43.8 mg/kg/day

## ClCOCCl
mouse, strain Ha/ICR, females, i.p., site: abdomen, lesion: sarcoma, dosed 60 weeks, study length 60 weeks
  TD50: 0.182 mg/kg/day
mouse, strain Ha/ICR, males, inhaled, site: liver, lesion: hepatocellular carcinoma, dosed 26 weeks, study length 108 weeks
  carcinogen call: negative (inactive)
mouse, strain Ha/ICR, males, inhaled, site: liver, lesion: several types, types named in the paper, dosed 26 weeks, study length 108 weeks
  carcinogen call: negative (inactive)
mouse, strain Ha/ICR, males, inhaled, site: lung, lesion: adenoma, dosed 26 weeks, study length 108 weeks
  TD50: 1.26 mg/kg/day
mouse, strain Ha/ICR, males, inhaled, site: lung, lesion: several types, types named in the paper, dosed 26 weeks, study length 108 weeks
  TD50: 1.16 mg/kg/day
rat, strain Sprague-Dawley Spartan, males, inhaled, site: any site (literature study), lesion: several types, types named in the paper, dosed 26 weeks, study length 121 weeks
  TD50: 0.00234 mg/kg/day
rat, strain Sprague-Dawley Spartan, males, inhaled, site: liver, lesion: hepatocellular tumor, benign, dosed 26 weeks, study length 121 weeks
  carcinogen call: negative (inactive)
rat, strain Sprague-Dawley Spartan, males, inhaled, site: lung, lesion: adenoma, dosed 26 weeks, study length 121 weeks
  TD50: 0.196 mg/kg/day
rat, strain Sprague-Dawley Spartan, males, inhaled, site: nasal passageway, lesion: carcinoma, dosed 26 weeks, study length 121 weeks
  TD50: 0.795 mg/kg/day
rat, strain Sprague-Dawley Spartan, males, inhaled, site: nasal passageway, lesion: esthesioneuroepithelioma, dosed 26 weeks, study length 121 weeks
  TD50: 0.00357 mg/kg/day

## NC(=O)N(CC(=O)O)N=O
rat, strain Donryu, females, in drinking water, site: any site (literature study), lesion: several types, types named in the paper, dosed 68 weeks, study length 68 weeks
  TD50: 1.38 mg/kg/day
rat, strain Donryu, females, in drinking water, site: intestine, lesion: several types, types named in the paper, dosed 68 weeks, study length 68 weeks
  TD50: 5.37 mg/kg/day
rat, strain Donryu, females, in drinking water, site: mammary gland, lesion: fibroadenoma, dosed 68 weeks, study length 68 weeks
  TD50: 2.92 mg/kg/day
rat, strain Donryu, females, in drinking water, site: mammary gland, lesion: several types, types named in the paper, dosed 68 weeks, study length 68 weeks
  TD50: 2.3 mg/kg/day
rat, strain Donryu, females, in drinking water, site: small intestine, lesion: adenocarcinoma, dosed 68 weeks, study length 68 weeks
  TD50: 11.6 mg/kg/day
rat, strain Donryu, females, in drinking water, site: small intestine, lesion: adenoma, dosed 68 weeks, study length 68 weeks
  TD50: 8.09 mg/kg/day
rat, strain MRC-Wistar, males, in drinking water, site: any site (literature study), lesion: several types, types named in the paper, dosed 74 weeks, study length 130 weeks
  TD50: 13.1 mg/kg/day
rat, strain MRC-Wistar, males, in drinking water, site: epidermis, lesion: several types, types named in the paper, dosed 74 weeks, study length 130 weeks
  TD50: 34.8 mg/kg/day
